Here are results for three molecules from patent US20080199489A1, “SKIN TREATMENT FORMULATIONS AND METHOD” (priority 2007, published 2008).

Series [1] in a line: Ozone output of ozonized formulations tested with a commercial ozone sensor. Type of series: physicochemical. The following applies: added to seaweed-containing ozonized formulations. As to the method: Cholecalciferol, vitamin D3, also known as the sunshine vitamin, aids in tissue regeneration and healing. […] For this reason it was determined that a certain amount of vitamin D3 increases the effectiveness of formulations containing seaweeds, especially those containing callophycus serratus.
The mask is used after the water broth cleansing and activating serum activation steps. As for the serum the inventor has observed a synergistic efficacy by using the combination of treatments. Also as for the serum the exact mechanism is yet to be understood, but the mask provides yet a third matrix for the preparation, storage and application of the active ingredients. As for the formulations previously described the mask is prepared from a selection of ingredients form each of the defined categories of teas, Algaes and seaweeds, herbal plant extracts and oils, flower extracts, fruit extracts, vegetable extracts, butters and oils, and finally other additives as indicated in the formulation lists below. […] The mask is prepared from freeze dried and powdered extracts of the indicated ingredients. The water broth described above is also an ingredient in the mask. The other ingredients are added as preservatives, solvents, and viscosity control agents and are not part of the active ingredients, but rather are a delivery system. […]

Series [2] concerns chronic rosacea. As to the kind of experiment: Example 2: treatment of a patient with chronic rosacea. In kind it is in vivo, human. As to conditions: person, topical. The text has this: A person suffered from chronic rosacea. Medical practitioner proscribed regular use of a steroidal cortisone anti-inflammatory cream. […] Patient was concerned about side effects of long term cortisone application. […] Improvement however could not be maintained even with regular treatment several times weekly.

Series [3] concerns basal cell carcinoma and pre-cancerous inflammation. The series is described as follows: Example 1: treatment of a patient with basal cell carcinoma and pre-cancerous inflammation. Type of series: in vivo, human. An excerpt:
The treatment procedure comprises application of each of the above described formulations in the order of cleansing with the water broth, activating with both the water broth and the activating serum, treatment with the mask formulation that entraps active ingredients against the affected skin and finally sealing and protecting the treated area with the cream. The affected area is first washed using the water broth. Activating serum is then applied to the skin. The water broth solution is put into the dispensing cup of aerosol generating device such as sold under the brand name Dermoxyzone Nebulizing Nanoparticle Infuser™, which infuses the nanoparticle sizes of the ozonated water broth into the epidermal layer. Absorption is optimized due to the activating serum's ability to pull moisture into the epidermis in greater amounts than could be absorbed without application of the activating serum. The Gel is not completely removed before applying the mask. The gel is wiped down with a cotton pad, leaving a residue on the skin. The mask is then applied over the residual gel covered area of the skin. The mixing serum and the powdered mask base are blended in a ratio of one to one, by volume, to form the mask just prior to use. For the treatment of one cheek for example, one tablespoon each of the powder and mixing serum are typically used. […]

Take `C=C1CC[C@H](O)C/C1=C/C=C1\CCC[C@]2(C)[C@@H]([C@H](C)CCCC(C)C)CC[C@@H]12` [Cholecalciferol]: the “ozone output / amount of ozone released from ozonated formulations” value is reported as “increased the ozone output” in series [1] and “increased significantly” in series [1] (listed as cholecalciferol).

With `C[C@]12CCC(=O)C=C1CC[C@@H]1[C@@H]2C(=O)C[C@@]2(C)[C@H]1CC[C@]2(O)C(=O)CO` [1% cortisone, cortisone], the “effect on rosacea inflammation” value in series [2] is “controlled most inflammation outbreaks”. As for `N#N` [liquid nitrogen], in series [3] (conventional treatment by medical practitioner), the “adverse effect of treatment” value was “scarring”. For the same molecule, the “outcome of cancer / cancerous tissue” value in series [3] (person) is recorded as “cancerous tissue reappeared within a few months of treatment”.
